Measurements from PMC9229919, “4-Aminoquinoline-Based Adamantanes as Potential Anticholinesterase Agents in Symptomatic Treatment of Alzheimer’s Disease” (Pharmaceutics, 2022).
Like-named read-outs stand apart in the source and are kept apart here.

Columns and labels:
[1] = Reverse-phase thin-layer chromatographic lipophilicity (RF, RM0); format: physicochemical; details: for RM0: intercept of RM = RM0 + bC; for b: slope of RM = RM0 + bC; for RF, Methanol/Water/Hydrochloric acid (conc.), mobile phase I / RF, Dioxane/Water/Hydrochloric acid (conc.), mobile phase II / RF, Methanol/Water/Hydrochloric acid (conc.), mobile phase II / RF, Acetone/Water/Hydrochloric acid (conc.), mobile phase III / RF, Dioxane/Water/Hydrochloric acid (conc.), mobile phase III / RF, Methanol/Water/Hydrochloric acid (conc.), mobile phase III / RF, Dioxane/Water/Hydrochloric acid (conc.), mobile phase IV / RF, Acetone/Water/Hydrochloric acid (conc.), mobile phase IV / RF, Methanol/Water/Hydrochloric acid (conc.), mobile phase IV / RF, Acetone/Water/Hydrochloric acid (conc.), mobile phase IX / RF, Methanol/Water/Hydrochloric acid (conc.), mobile phase IX / RF, Dioxane/Water/Hydrochloric acid (conc.), mobile phase V / RF, Acetone/Water/Hydrochloric acid (conc.), mobile phase V / RF, Methanol/Water/Hydrochloric acid (conc.), mobile phase V / RF, Dioxane/Water/Hydrochloric acid (conc.), mobile phase VI / RF, Acetone/Water/Hydrochloric acid (conc.), mobile phase VI / RF, Methanol/Water/Hydrochloric acid (conc.), mobile phase VI / RF, Acetone/Water/Hydrochloric acid (conc.), mobile phase VII / RF, Methanol/Water/Hydrochloric acid (conc.), mobile phase VII / RF, Acetone/Water/Hydrochloric acid (conc.), mobile phase VIII / RF, Methanol/Water/Hydrochloric acid (conc.), mobile phase VIII: RP-18 silica; for RF, Methanol/Water/Hydrochloric acid (conc.), mobile phase I: I = 90%MeOH/5%H2O/5%HCl; for RF, Dioxane/Water/Hydrochloric acid (conc.), mobile phase II: II = 80%Dioxane/15%H2O/5%HCl; for RF, Methanol/Water/Hydrochloric acid (conc.), mobile phase II: II = 85%MeOH/10%H2O/5%HCl; for RF, Acetone/Water/Hydrochloric acid (conc.), mobile phase III: III = 70%AC/25%H2O/5%HCl; for RF, Dioxane/Water/Hydrochloric acid (conc.), mobile phase III: III = 70%Dioxane/25%H2O/5%HCl; for RF, Methanol/Water/Hydrochloric acid (conc.), mobile phase III: III = 80%MeOH/15%H2O/5%HCl; for RF, Dioxane/Water/Hydrochloric acid (conc.), mobile phase IV: IV = 60%Dioxane/35%H2O/5%HCl; for RF, Acetone/Water/Hydrochloric acid (conc.), mobile phase IV: IV = 65%AC/30%H2O/5%HCl; for RF, Methanol/Water/Hydrochloric acid (conc.), mobile phase IV: IV = 75%MeOH/20%H2O/5%HCl; for RF, Acetone/Water/Hydrochloric acid (conc.), mobile phase IX: IX = 40%AC/55%H2O/5%HCl; for RF, Methanol/Water/Hydrochloric acid (conc.), mobile phase IX: IX = 50%MeOH/45%H2O/5%HCl; for RF, Dioxane/Water/Hydrochloric acid (conc.), mobile phase V: V = 50%Dioxane/45%H2O/5%HCl; for RF, Acetone/Water/Hydrochloric acid (conc.), mobile phase V: V = 60%AC/35%H2O/5%HCl; for RF, Methanol/Water/Hydrochloric acid (conc.), mobile phase V: V = 70%MeOH/25%H2O/5%HCl; for RF, Dioxane/Water/Hydrochloric acid (conc.), mobile phase VI: VI = 40%Dioxane/55%H2O/5%HCl; for RF, Acetone/Water/Hydrochloric acid (conc.), mobile phase VI: VI = 55%AC/40%H2O/5%HCl; for RF, Methanol/Water/Hydrochloric acid (conc.), mobile phase VI: VI = 65%MeOH/30%H2O/5%HCl; for RF, Acetone/Water/Hydrochloric acid (conc.), mobile phase VII: VII = 50%AC/45%H2O/5%HCl; for RF, Methanol/Water/Hydrochloric acid (conc.), mobile phase VII: VII = 60%MeOH/35%H2O/5%HCl; for RF, Acetone/Water/Hydrochloric acid (conc.), mobile phase VIII: VIII = 45%AC/50%H2O/5%HCl; for RF, Methanol/Water/Hydrochloric acid (conc.), mobile phase VIII: VIII = 55%MeOH/40%H2O/5%HCl
Protocol: Chromatographic determination of lipophilicity
Merck, Darmstadt, Germany). The mobile phase contained organic modifier (methanol, acetone or dioxane), water and hydrochloric acid.
Methanol was varied in the range […]
with an increment of 10%. […]
before chromatogram development. The solvent developing distance was 4.5 cm. Detection of […]
All experiments were performed at ambient temperature (22±2 °C). Retention parameters were calculated as previously described. […]

[2] = Ferric reducing antioxidant power (FRAP) assay; details: mean ± standard error of three experiments;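 also: expressed as µM Fe2+ equivalents from an FeSO4·7H2O standard curve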
Protocol: . All the chemicals were purchased from Sigma-Aldrich (St. Louis, MO, USA), except for tripyridyltriazine (TPTZ) (Fluka, Buchs, Switzerland) and FeCl3 (Kemika, Zagreb, Croatia). The FRAP assay was assessed according to Benzie and Strain [53] with slight procedure adjustments for 96-well microplates. The method is based on the reduction of the ferric-tripyridyltriazine (Fe^3+-TPTZ) complex to ferrous tripyridyltriazine (Fe^2+-TPTZ) by the action of electron-donating compounds at a low pH. Briefly, the FRAP reagent was prepared by mixing acetate buffer (300 mM, pH 3.6), a solution of 10 mM TPTZ in 40 mM HCl, and 20 mM FeCl3 at 10:1:1 (v/v/v). Then, 240 μL of FRAP reagent and 10 μL of sample solution were added to a 96-well plate and incubated at 37 °C for 60 min. The absorbance was measured at 593 nm using a microplate reader (Infinite M200PRO, Tecan Austria GmbH, Salzburg, Austria) against a blank. The reducing capacity was determined for 10 and 100 µM compound concentrations. […]. All measurements were performed in three independent experiments. FRAP values, denominating the reduction of ferric-tripyridyltriazine (Fe^3+-TPTZ) to ferrous tripyridyltriazine (Fe^2+-TPTZ) by 4-aminoquinolines were calculated based on a standard curve obtained using […].

purified human BChE = target: T1, purified human BChE (Homo sapiens, UniProt P06276); test: biochemical; format: biochemical
T1 construct: possibly also a gift of Dr Florian Nachon (the sentence is ambiguous)
T1 sequence (P06276 29-602): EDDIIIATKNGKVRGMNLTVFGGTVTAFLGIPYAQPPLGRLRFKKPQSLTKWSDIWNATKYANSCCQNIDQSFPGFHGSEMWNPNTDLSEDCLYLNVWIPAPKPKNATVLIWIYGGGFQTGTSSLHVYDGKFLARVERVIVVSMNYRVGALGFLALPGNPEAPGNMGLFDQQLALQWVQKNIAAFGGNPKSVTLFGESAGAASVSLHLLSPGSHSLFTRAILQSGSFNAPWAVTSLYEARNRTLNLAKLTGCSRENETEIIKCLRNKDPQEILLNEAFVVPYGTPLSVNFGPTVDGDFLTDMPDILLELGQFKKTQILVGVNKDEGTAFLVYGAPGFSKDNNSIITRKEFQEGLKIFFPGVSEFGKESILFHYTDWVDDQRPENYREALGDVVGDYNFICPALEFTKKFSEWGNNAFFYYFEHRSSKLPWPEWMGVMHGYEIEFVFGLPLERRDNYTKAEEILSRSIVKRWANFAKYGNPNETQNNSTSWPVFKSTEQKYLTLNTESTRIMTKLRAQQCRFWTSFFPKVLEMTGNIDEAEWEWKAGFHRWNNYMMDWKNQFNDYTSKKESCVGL
Protocol: (§1) Acetylthiocholine (ATCh) and 5,5′-dithiobis(2-nitrobenzoic acid) (DTNB) were purchased from Sigma-Aldrich, St. Louis, MO, USA. ATCh was dissolved in water and DTNB in 0.1 M sodium phosphate buffer (pH 7.4). The 4-aminoquinilines were dissolved in DMSO and all further dilutions were made in water.
(§2) The sources of AChE and BChE were purified human BChE and recombinant human AChE that was kindly provided by Dr Florian Nachon (Département de Toxicologie, Armed Forces Biomedical Research Institute, Brétigny-sur-Orge, France). […] The enzymes were diluted in sodium phosphate buffer 0.1 M (pH 7.4) containing 0.1% BSA.
(§3) Enzyme activities were measured spectrophotometrically using a slightly modified Ellman method, as described earlier. […] At least three inhibitor concentrations for each substrate concentration were used in at least three experiments. The apparent inhibition constant (Ki,app) was calculated using the Hunter–Downs Equation and linear regression analysis:(1) Ki,app=vi·i/v0−vi=Ki+Ki/KS·s where the y-intercept determines the enzyme-inhibitor dissociation constant (Ki), while the x-intercept determines the enzyme-substrate dissociation constant, KS.
(§4) The Hunter–Downs Equation was used under the assumption that the substrate, due to relatively low concentrations used in experiments, would bind only to the catalytic site of the enzymes, while the inhibitors would bind to both CAS and/or PAs. This allowed the type of inhibition to be determined from Ki,app vs. substrate concentration ([S]) dependency on Hunter–Downs plot.
(§5) The final content of DMSO in the measurements was up to 0.2%. […] The measurements were performed at 25 °C on a Tecan Infinite M200Pro plate reader (Tecan Austria GmbH, Salzburg, Austria).

recombinant human AChE = target: T2, recombinant human AChE (Homo sapiens, UniProt P22303); test: biochemical; format: biochemical; details: for IS: IS = Ki(BChE)/Ki(AChE), IS > 1 selective to AChE
T2 construct: gift of Dr Florian Nachon (Armed Forces Biomedical Research Institute, Brétigny-sur-Orge, France)
T2 sequence (P22303 32-614): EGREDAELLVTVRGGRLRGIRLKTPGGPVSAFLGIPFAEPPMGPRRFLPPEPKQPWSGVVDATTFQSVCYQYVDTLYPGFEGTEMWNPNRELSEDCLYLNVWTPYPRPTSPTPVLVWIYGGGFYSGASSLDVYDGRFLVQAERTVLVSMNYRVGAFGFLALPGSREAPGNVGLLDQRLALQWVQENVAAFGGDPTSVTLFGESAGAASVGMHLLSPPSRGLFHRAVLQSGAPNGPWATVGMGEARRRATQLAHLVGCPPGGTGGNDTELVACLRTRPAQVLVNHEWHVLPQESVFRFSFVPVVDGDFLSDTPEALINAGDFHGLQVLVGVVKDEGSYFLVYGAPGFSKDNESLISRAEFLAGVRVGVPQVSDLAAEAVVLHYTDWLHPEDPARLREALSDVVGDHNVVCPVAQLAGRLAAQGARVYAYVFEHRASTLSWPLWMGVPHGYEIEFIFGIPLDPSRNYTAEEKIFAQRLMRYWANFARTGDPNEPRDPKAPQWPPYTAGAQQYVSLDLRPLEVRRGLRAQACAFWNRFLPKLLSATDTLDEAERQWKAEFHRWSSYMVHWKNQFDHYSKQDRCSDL
Protocol: as §1, §2, §3, §4, §5

[3] = Acetone/Water/Hydrochloric acid (conc.)
[4] = Dioxane/Water/Hydrochloric acid (conc.)
[5] = Methanol/Water/Hydrochloric acid (conc.)
[6] = logarithm of Ki in µM, BChE, dependent variable of the QSAR model, read-out: Y Measured 2 log(ki)Bche, log (Ki/µM BChE) (converted)
[7] = ± standard error, 25 °C, ATCh substrate, read-out: Ki BChE
[8] = log (Ki/µM AChE), read-out: Y Measured 1 log(ki)Ache (converted)
[9] = ± standard error, 25 °C, ATCh substrate, read-out: Ki AChE

Row | Structure (SMILES) | RM0 [1, 3] | b [1, 3] | RM0 [1, 4] | b [1, 4] | RM0 [1, 5] | b [1, 5] | RF, Methanol/Water/Hydrochloric acid (conc.), mobile phase I [1] | RF, Dioxane/Water/Hydrochloric acid (conc.), mobile phase II [1] | RF, Methanol/Water/Hydrochloric acid (conc.), mobile phase II [1] | RF, Acetone/Water/Hydrochloric acid (conc.), mobile phase III [1] | RF, Dioxane/Water/Hydrochloric acid (conc.), mobile phase III [1] | RF, Methanol/Water/Hydrochloric acid (conc.), mobile phase III [1] | RF, Dioxane/Water/Hydrochloric acid (conc.), mobile phase IV [1] | RF, Acetone/Water/Hydrochloric acid (conc.), mobile phase IV [1] | RF, Methanol/Water/Hydrochloric acid (conc.), mobile phase IV [1] | RF, Acetone/Water/Hydrochloric acid (conc.), mobile phase IX [1] | RF, Methanol/Water/Hydrochloric acid (conc.), mobile phase IX [1] | RF, Dioxane/Water/Hydrochloric acid (conc.), mobile phase V [1] | RF, Acetone/Water/Hydrochloric acid (conc.), mobile phase V [1] | RF, Methanol/Water/Hydrochloric acid (conc.), mobile phase V [1] | further results
1 | Clc1ccc2c(NCCCCCCNCC34CC5CC(CC(C5)C3)C4)ccnc2c1 [Compound 4] | 2.036 | 3.254 | 0.9103 | 1.922 | 2.899 | 3.742 | 0.72 | 0.78 | 0.66 | 0.6 | 0.73 | 0.47 | 0.72 | 0.55 | 0.49 | 0.11 | 0.06 | 0.52 | 0.45 | 0.4 | RF, Dioxane/Water/Hydrochloric acid (conc.), mobile phase VI [1]: 0.38; RF, Acetone/Water/Hydrochloric acid (conc.), mobile phase VI [1]: 0.37; RF, Methanol/Water/Hydrochloric acid (conc.), mobile phase VI [1]: 0.31; RF, Acetone/Water/Hydrochloric acid (conc.), mobile phase VII [1]: 0.33; RF, Methanol/Water/Hydrochloric acid (conc.), mobile phase VII [1]: 0.2; RF, Acetone/Water/Hydrochloric acid (conc.), mobile phase VIII [1]: 0.26; RF, Methanol/Water/Hydrochloric acid (conc.), mobile phase VIII [1]: 0.13; FRAP ([2]; 10 µM compound): 1.9 ± 0.5 µM; FRAP ([2]; 100 µM compound): 58 ± 10 µM; Ki (purified human BChE; [6]): 0.76 µM; Ki (purified human BChE; [7]): 0.76 ± 0.06 µM; IS (recombinant human AChE): 1.1; Ki (recombinant human AChE; [8]): 0.67 µM; Ki (recombinant human AChE; [9]): 0.67 ± 0.02 µM
2 | Clc1ccc2c(NCCCCCCCCNCC34CC5CC(CC(C5)C3)C4)ccnc2c1 [Compound 5] | 2.706 | 4.173 | 1.151 | 2.214 | 3.7376 | 4.663 | 0.67 | 0.78 | 0.62 | 0.55 | 0.7 | 0.42 | 0.7 | 0.49 | 0.44 | 0.04 | 0.02 | 0.47 | 0.39 | 0.34 | RF, Dioxane/Water/Hydrochloric acid (conc.), mobile phase VI [1]: 0.31; RF, Acetone/Water/Hydrochloric acid (conc.), mobile phase VI [1]: 0.32; RF, Methanol/Water/Hydrochloric acid (conc.), mobile phase VI [1]: 0.23; RF, Acetone/Water/Hydrochloric acid (conc.), mobile phase VII [1]: 0.28; RF, Methanol/Water/Hydrochloric acid (conc.), mobile phase VII [1]: 0.11; RF, Acetone/Water/Hydrochloric acid (conc.), mobile phase VIII [1]: 0.19; RF, Methanol/Water/Hydrochloric acid (conc.), mobile phase VIII [1]: 0.07; FRAP ([2]; 10 µM compound): 9.5 ± 1.9 µM; FRAP ([2]; 100 µM compound): 82 ± 4 µM; increase in BChE inhibition vs compounds 3 and 4 (purified human BChE): about 9 times; more potent BChE inhibitor than galantamine (purified human BChE; comparator ref [63]): 12 times; Ki (purified human BChE; [6]): 0.0912 µM; Ki (purified human BChE; [7]): 0.091 ± 0.007 µM; less potent AChE inhibitor than donepezil and tacrine (recombinant human AChE): 2 to 3 times; IS (recombinant human AChE): 1.2; Ki (recombinant human AChE; [8]): 0.0759 µM; increase in AChE inhibition potency (recombinant human AChE; n-octylene spacer vs unbranched compounds with shorter spacer): about 12 times; Ki (recombinant human AChE; [9]): 0.075 ± 0.06 µM
